Source: patent US8481544B2, “Antibacterial compositions” (Biota Europe Limited, priority 2006, dated 2013)
Values after ≈ are worked out from the molar mass of the structure shown. Read-outs that look alike come from different tables or passages of the source.

Assays:
[1] = test system: Enterococcus faecalis ATCC 29212; experiment: MIC against Enterococcus faecalis ATCC 29212; format: cell-based; conditions: ATCC29212
In short: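 MIC measured by broth microdilution or agar dilution following CLSI guidelines (M7-A7 for aerobes, M11-A6 for anaerobes).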

[2] = test system: Enterococcus faecalis (VRE) ATCC 51299; experiment: MIC against Enterococcus faecalis (VRE) ATCC 51299; format: cell-based
[3] = test system: Enterococcus faecium (VRE) ATCC 700221; experiment: MIC against Enterococcus faecium (VRE) ATCC 700221; format: cell-based
[4] = test system: Enterococcus faecium (VSE) ATCC 19434; experiment: MIC against Enterococcus faecium (VSE) ATCC 19434; format: cell-based; conditions: ATCC19434
[5] = test system: Moraxella catarrhalis ATCC 25240; experiment: MIC against Moraxella catarrhalis ATCC 25240; format: cell-based; conditions: ATCC25240
[6] = test system: Staphylococcus aureus ATCC 29213; experiment: MIC against Staphylococcus aureus ATCC 29213; format: cell-based; conditions: ATCC29213
[7] = test system: Staphylococcus epidermidis ATCC 12228; experiment: MIC against Staphylococcus epidermidis ATCC 12228; format: cell-based; conditions: ATCC12228
[8] = test system: Staphylococcus haemolyticus ATCC 29970; experiment: MIC against Staphylococcus haemolyticus ATCC 29970; format: cell-based; conditions: ATCC29970
[9] = test system: Streptococcus mutans ATCC 35668; experiment: MIC against Streptococcus mutans ATCC 35668; format: cell-based; conditions: ATCC35668
[10] = test system: Streptococcus pyogenes ATCC 51339; experiment: MIC against Streptococcus pyogenes ATCC 51339; format: cell-based; conditions: ATCC51339
[11] = test system: Streptococcus agalactiae ATCC 13813; experiment: MIC against Streptococcus agalactiae ATCC 13813; format: cell-based; conditions: ATCC13813
[12] = test system: Streptococcus pneumoniae ATCC 49619; experiment: MIC against Streptococcus pneumoniae ATCC 49619; format: cell-based; conditions: ATCC49619
Staphylococcus aureus = experiment: mouse Staphylococcus aureus septicaemia model of infection, survival at day 7; format: in vivo
Method: Some of the Example compounds were also tested for activity in a mouse Staphylococcus aureus septicaemia model of infection.

[13] = test system: Bacteroides fragilis ATCC 25285; experiment: MIC against Bacteroides fragilis ATCC 25285; format: cell-based; conditions: ATCC25285, Isolate ID ATCC 25285
[14] = test system: Chlamydia trachomatis T71214; experiment: MIC against Chlamydia trachomatis T71214; format: cell-based; conditions: Isolate ID T71214
[15] = test system: Chlamydophila pneumoniae IOL207; experiment: MIC against Chlamydophila pneumoniae IOL207; format: cell-based; conditions: Chlamydia pneumoniae; Isolate ID IOL207
[16] = test system: Clostridium difficile NQS 84; experiment: MIC against Clostridium difficile NQS 84; format: cell-based; conditions: Clostridioides difficile, NQS84; Isolate ID NQS 84
Source text: Institute. Methods for Dilution Antimicrobial Susceptibility Tests for Bacteria That Grow Aerobically; Approved Standard—Seventh Edition. Document M7-A7. CLSI, Wayne, Pa., 2006; Clinical Laboratories and Standards Institute. Methods for Antimicrobial Susceptibility Testing of Anaerobic Bacteria; Approved Standard—Sixth Edition. Document M11-A6. CLSI, Wayne, Pa., 2004).

[17] = test system: Clostridium perfringens IV306001; experiment: microbe, parasite or virus in culture; format: cell-based; conditions: IV306001, read-out: MIC (Activity) against Clostridium perfringens
Escherichia coli N43 = experiment: MIC against Escherichia coli N43; format: cell-based; conditions: Isolate ID N43
[18] = test system: Haemophilus influenzae ATCC 49247; experiment: MIC against Haemophilus influenzae ATCC 49247; format: cell-based; conditions: ATCC49247, Isolate ID ATCC 49247
[19] = test system: Helicobacter pylori DJF 11; experiment: MIC against Helicobacter pylori DJF 11; format: cell-based; conditions: DJF11, Isolate ID DJF 11
[20] = test system: Lactococcus lactis ATCC 11454; experiment: MIC against Lactococcus lactis ATCC 11454; format: cell-based; conditions: ATCC11454, Isolate ID ATCC 11454
[21] = test system: Legionella pneumophila LP NCTC 11192; experiment: microbe, parasite or virus in culture; format: cell-based; conditions: NCTC11192, read-out: MIC (Activity) against Legionella pneumophila
[22] = test system: Listeria monocytogenes ATCC 19115; experiment: MIC against Listeria monocytogenes ATCC 19115; format: cell-based; conditions: ATCC19115, Isolate ID ATCC 19115
[23] = test system: Mycoplasma hominis MH NCTC 10111; experiment: MIC against Mycoplasma hominis MH NCTC 10111; format: cell-based; conditions: Metamycoplasma hominis, NCTC10111; Isolate ID MH NCTC 10111
Mycoplasma hominis MH 10 = experiment: MIC against Mycoplasma hominis MH 10; format: cell-based; conditions: Metamycoplasma hominis, MH10; Isolate ID MH 10
[24] = test system: Mycoplasma pneumoniae MP 9; experiment: MIC against Mycoplasma pneumoniae MP 9; format: cell-based; conditions: MP9, Isolate ID MP 9
[25] = test system: Mycoplasma pneumoniae MP NCTC 10119; experiment: MIC against Mycoplasma pneumoniae MP NCTC 10119; format: cell-based; conditions: NCTC10119, Isolate ID MP NCTC 10119
[26] = test system: Neisseria gonorrhoeae NG ATCC 49226; experiment: MIC against Neisseria gonorrhoeae NG ATCC 49226; format: cell-based; conditions: ATCC49226, Isolate ID NG ATCC 49226
[27] = test system: Propionibacterium acnes ATCC 11821; experiment: MIC against Propionibacterium acnes ATCC 11821; format: cell-based; conditions: Cutibacterium acnes, ATCC11821; Isolate ID ATCC 11821
[28] = test system: Staphylococcus aureus VRS1; experiment: MIC against Staphylococcus aureus VRS1; format: cell-based; conditions: Isolate ID VRS1
[29] = test system: Staphylococcus aureus VRS2; experiment: MIC against Staphylococcus aureus VRS2; format: cell-based; conditions: Isolate ID VRS2
[30] = test system: Staphylococcus aureus VRS3; experiment: MIC against Staphylococcus aureus VRS3; format: cell-based; conditions: Isolate ID VRS3
[31] = test system: Streptococcus pneumoniae ATCC 700671; experiment: MIC against Streptococcus pneumoniae ATCC 700671; format: cell-based; conditions: ATCC700671, Isolate ID ATCC 700671
[32] = test system: Streptococcus pneumoniae SP 051430; experiment: MIC against Streptococcus pneumoniae SP 051430; format: cell-based; conditions: SP051430, Isolate ID SP 051430
[33] = test system: Streptococcus pneumoniae (FQR) SP 26054; experiment: MIC against Streptococcus pneumoniae (FQR) SP 26054; format: cell-based; conditions: Isolate ID SP 26054
[34] = test system: Streptococcus pneumoniae (FQR) SP 25058; experiment: MIC against Streptococcus pneumoniae (FQR) SP 25058; format: cell-based; conditions: Isolate ID SP 25058
[35] = test system: Streptococcus pneumoniae (MacR) SP 051431; experiment: MIC against Streptococcus pneumoniae (MacR) SP 051431; format: cell-based; conditions: Isolate ID SP 051431

CCNC(=O)Nc1nc2cc(-c3cccnc3)nc(-c3cccnc3)c2s1 [Example 180, 1-(4,6-Di-pyridin-3-yl-thiazolo[5,4-c]pyridin-2-yl)-3-ethyl-urea]
MIC ([1]; Enterococcus faecalis, ATCC 29212, Table 5, read-out: MIC against Enterococcus faecalis (Activity)): 0.25 to 1 µg/mL (≈ 0.664 to 2.66 µM) | MIC ([2]; Enterococcus faecalis (VRE) ATCC 51299, read-out: MIC Activity): 0.25 to 1 µg/mL (≈ 0.664 to 2.66 µM) | MIC ([3]; Enterococcus faecium (VRE) ATCC 700221, read-out: MIC Activity): 2 to 16 µg/mL (≈ 5.31 to 42.5 µM) | MIC ([4]; Enterococcus faecium (VSE) ATCC 19434, read-out: MIC Activity): 2 to 16 µg/mL (≈ 5.31 to 42.5 µM) | MIC ([5]; Moraxella catarrhalis ATCC 25240, read-out: MIC Activity): 0.25 to 1 µg/mL (≈ 0.664 to 2.66 µM) | MIC ([6]; Staphylococcus aureus ATCC 29213, read-out: MIC Activity): 2 to 16 µg/mL (≈ 5.31 to 42.5 µM) | MIC ([7]; Staphylococcus epidermidis ATCC 12228, read-out: MIC Activity): 0.25 to 1 µg/mL (≈ 0.664 to 2.66 µM) | MIC ([8]; Staphylococcus haemolyticus ATCC 29970, read-out: MIC Activity): 0.25 to 1 µg/mL (≈ 0.664 to 2.66 µM) | MIC ([9]; Streptococcus mutans ATCC 35668, read-out: MIC Activity): 0.25 to 1 µg/mL (≈ 0.664 to 2.66 µM) | MIC ([10]; Streptococcus pyogenes ATCC 51339, read-out: MIC Activity): 2 to 16 µg/mL (≈ 5.31 to 42.5 µM) | MIC [11]: 0.25 to 1 µg/mL (≈ 0.664 to 2.66 µM) | MIC [12]: 0.25 to 1 µg/mL (≈ 0.664 to 2.66 µM)

CCNC(=O)Nc1nc2cc(-c3cccnc3)cc(-c3ccccn3)c2s1 [Example 163, 1-Ethyl-3-(5-pyridin-3-yl-7-pyridin-2-yl-benzothiazol-2-yl)-urea]
MIC ([1]; Enterococcus faecalis ATCC 29212, read-out: MICs against Enterococcus faecalis, Activity): < 0.25 µg/mL | Percent survival (Staphylococcus aureus; 1 × 10 mg/kg intraperitoneal, 1 hour after inoculation): 60 | Percent survival (Staphylococcus aureus; 1 × 30 mg/kg intraperitoneal, 1 hour after inoculation): 100 | Percent survival (Staphylococcus aureus; 2 × 30 mg/kg intraperitoneal, 1 and 6 hours after inoculation): 100 | MIC [13]: 2 to 16 µg/mL (≈ 5.33 to 42.6 µM) | MIC [14]: 0.25 to 1 µg/mL (≈ 0.666 to 2.66 µM) | MIC [15]: < 0.25 µg/mL | MIC [16]: 0.25 to 1 µg/mL (≈ 0.666 to 2.66 µM) | MIC [17]: 0.25 to 1 µg/mL (≈ 0.666 to 2.66 µM) | MIC ([2]; Enterococcus faecalis, Isolate ID ATCC 51299, read-out: MIC (Activity) against Enterococcus faecalis (VRE)): < 0.25 µg/mL | MIC ([3]; Enterococcus faecium, Isolate ID ATCC 700221, read-out: MIC (Activity) against Enterococcus faecium (VRE)): < 0.25 µg/mL | MIC ([4]; Enterococcus faecium, Isolate ID ATCC 19434, read-out: MIC (Activity) against Enterococcus faecium (VSE)): 0.25 to 1 µg/mL (≈ 0.666 to 2.66 µM) | MIC (Escherichia coli N43): 2 to 16 µg/mL (≈ 5.33 to 42.6 µM) | MIC [18]: 2 to 16 µg/mL (≈ 5.33 to 42.6 µM) | MIC [19]: < 0.25 µg/mL | MIC [20]: < 0.25 µg/mL | MIC [21]: 0.25 to 1 µg/mL (≈ 0.666 to 2.66 µM) | MIC [22]: < 0.25 µg/mL | MIC ([5]; Moraxella catarrhalis, Isolate ID ATCC 25240, read-out: MIC (Activity) against Moraxella catarrhalis): < 0.25 µg/mL | MIC [23]: 0.25 to 1 µg/mL (≈ 0.666 to 2.66 µM) | MIC (Mycoplasma hominis MH 10): 0.25 to 1 µg/mL (≈ 0.666 to 2.66 µM) | MIC [24]: 0.25 to 1 µg/mL (≈ 0.666 to 2.66 µM) | MIC [25]: 0.25 to 1 µg/mL (≈ 0.666 to 2.66 µM) | MIC [26]: 0.25 to 1 µg/mL (≈ 0.666 to 2.66 µM) | MIC [27]: < 0.25 µg/mL | MIC ([6]; Staphylococcus aureus, Isolate ID ATCC 29213, read-out: MIC (Activity) against Staphylococcus aureus): 0.25 to 1 µg/mL (≈ 0.666 to 2.66 µM) | MIC [28]: < 0.25 µg/mL | MIC [29]: < 0.25 µg/mL | MIC [30]: < 0.25 µg/mL | MIC ([7]; Staphylococcus epidermidis, Isolate ID ATCC 12228, read-out: MIC (Activity) against Staphylococcus epidermidis): < 0.25 µg/mL | MIC ([8]; Staphylococcus haemolyticus, Isolate ID ATCC 29970, read-out: MIC (Activity) against Staphylococcus haemolyticus): < 0.25 µg/mL | MIC ([9]; Streptococcus mutans, Isolate ID ATCC 35668, read-out: MIC (Activity) against Streptococcus mutans): < 0.25 µg/mL | MIC [31]: < 0.25 µg/mL | MIC [32]: < 0.25 µg/mL | MIC [33]: < 0.25 µg/mL | MIC [34]: < 0.25 µg/mL | MIC [35]: < 0.25 µg/mL | MIC ([10]; Streptococcus pyogenes, Isolate ID ATCC 51339, read-out: MIC (Activity) against Streptococcus pyogenes): 0.25 to 1 µg/mL (≈ 0.666 to 2.66 µM)
